Experimental data published in the NIST ThermoML archive (doi:10.1016/j.jct.2016.04.018).
Numbers after ± are expanded uncertainties.

Settings: 298.15 K; 101.3 kPa; Crystal; flotation method

mass density: 1489.7 ± 2.5 kg/m3
Structure (SMILES): O=[N+]([O-])c1ccc(O)c2ncccc12 [5-nitro-8-quinolinol]
